Species on record: Rattus norvegicus
Assay: Open TG-GATES - Regimen: Daily Repeat
Type: toxicity, organism-based, Sprague-Dawley
Parameters: regimen Daily Repeat, gender Male, age 6 weeks
Settings: in vivo, sc, 0.2 mg/kg, route subcutaneous injection, dose 200 ug/Kg, dose level High; for APTT / Bas / Eos / Fbg / Hb / Ht / Lym / MCH / MCHC / MCV / Mono / Neu / PT / Plat / RBC / Ret / WBC: tissue Blood; for KIDNEY_L / KIDNEY_R / KIDNEY_TOTAL: tissue Kidney; for LIVER: tissue Liver; for A/G / ALP / ALT / AST / BUN / CRE / Ca / Cl / DBIL / GLC / IP / K / LDH / Na / PL / RALB / TBIL / TC / TG / TP / gamma-GTP: tissue Plasma

With `CC(=O)O.N=C(N)NCCC[C@@H](NC(=O)[C@@H]1CCCN1C(=O)[C@@H]1CSSCCC(=O)N[C@@H](Cc2ccc(O)cc2)C(=O)N[C@@H](Cc2ccccc2)C(=O)N[C@@H](CCC(N)=O)C(=O)N[C@@H](CC(N)=O)C(=O)N1)C(=O)NCC(N)=O` [DESMOPRESSIN ACETATE] the TERMINAL_BW (72 h, time 3 day) was 235.3 g, the APTT (72 h, time 3 day) was 17.2 s and the Bas (72 h, time 3 day) was 0%. The Eos (72 h, time 3 day) was 1%, the Fbg (72 h, time 3 day) was 258 mg/dL and the Hb (72 h, time 3 day) was 13.4 g/dL. For the same molecule, the Ht (72 h, time 3 day) was 40.8%, the Lym (72 h, time 3 day) was 67.8% and the MCH (72 h, time 3 day) was 21.1 pg. The MCHC (72 h, time 3 day) was 32.8%, the MCV (72 h, time 3 day) was 64.3 fL and the Mono (72 h, time 3 day) was 11.8%. The Neu (72 h, time 3 day) was 18.8%, the PT (72 h, time 3 day) was 12.2 s and the Plat (72 h, time 3 day) was 126.8 x10_4/uL. For the same molecule, the RBC (72 h, time 3 day) was 635.6 x10_4/ul, the Ret (72 h, time 3 day) was 6.8% and the WBC (72 h, time 3 day) was 73.8 x10_2/uL. The KIDNEY_L (72 h, time 3 day) was 1.1 g, the KIDNEY_R (72 h, time 3 day) was 1.1 g and the KIDNEY_TOTAL (72 h, time 3 day) was 2.2 g. For the same molecule, the LIVER (72 h, time 3 day) was 10 g, the A/G (72 h, time 3 day) was 2 and the ALP (72 h, time 3 day) was 1277.4 IU/L. For the same molecule, the ALT (72 h, time 3 day) was 32 IU/L, the AST (72 h, time 3 day) was 69.2 IU/L and the BUN (72 h, time 3 day) was 20 mg/dL. It also gave a CRE (72 h, time 3 day) of 0.4 mg/dL, a Ca (72 h, time 3 day) of 11.3 mg/dL and a Cl (72 h, time 3 day) of 102.8 meq/L. The DBIL (72 h, time 3 day) was 0.012 mg/dL, the GLC (72 h, time 3 day) was 196.4 mg/dL and the IP (72 h, time 3 day) was 7.6 mg/dL. For the same molecule, the K (72 h, time 3 day) was 5.5 meq/L, the LDH (72 h, time 3 day) was 179.6 IU/L and the Na (72 h, time 3 day) was 136 meq/L. It also gave a PL (72 h, time 3 day) of 138.6 mg/dL, an RALB (72 h, time 3 day) of 3.7 g/dL and a TBIL (72 h, time 3 day) of 0.042 mg/dL. It also gave a TC (72 h, time 3 day) of 75.6 mg/dL, a TG (72 h, time 3 day) of 85.2 mg/dL and a TP (72 h, time 3 day) of 5.6 g/dL. For the same molecule, the gamma-GTP (72 h, time 3 day) was 1 IU/L, the TERMINAL_BW ([…], time 7 day) was 258.6 g and the TERMINAL_BW ([…], time 14 day) was 323.7 g. For the same molecule, the TERMINAL_BW ([…], time 28 day) was 400.9 g, the APTT ([…], time 7 day) was 18.6 s and the Bas ([…], time 7 day) was 0%. It also gave an Eos ([…], time 7 day) of 1%, a Fbg ([…], time 7 day) of 251.8 mg/dL and a Hb ([…], time 7 day) of 13.6 g/dL. The Ht ([…], time 7 day) was 41.4%, the Lym ([…], time 7 day) was 75% and the MCH ([…], time 7 day) was 20.7 pg. The MCHC ([…], time 7 day) was 32.9%, the MCV ([…], time 7 day) was 63.1 fL and the Mono ([…], time 7 day) was 8.2%. The Neu ([…], time 7 day) was 16.2%, the PT ([…], time 7 day) was 13.4 s and the Plat ([…], time 7 day) was 122 x10_4/uL. It also gave an RBC ([…], time 7 day) of 656.4 x10_4/ul, a Ret ([…], time 7 day) of 7.3% and a WBC ([…], time 7 day) of 112.4 x10_2/uL. The APTT ([…], time 14 day) was 17 s, the Bas ([…], time 14 day) was 0% and the Eos ([…], time 14 day) was 1.2%. For the same molecule, the Fbg ([…], time 14 day) was 244.8 mg/dL, the Hb ([…], time 14 day) was 13.8 g/dL and the Ht ([…], time 14 day) was 42.7%. For the same molecule, the Lym ([…], time 14 day) was 73.2%, the MCH ([…], time 14 day) was 20.5 pg and the MCHC ([…], time 14 day) was 32.4%. It also gave an MCV ([…], time 14 day) of 63.2 fL, a Mono ([…], time 14 day) of 8.2% and a Neu ([…], time 14 day) of 17.4%. For the same molecule, the PT ([…], time 14 day) was 11.9 s, the Plat ([…], time 14 day) was 110.6 x10_4/uL and the RBC ([…], time 14 day) was 675.8 x10_4/ul. It also gave a Ret ([…], time 14 day) of 6.1%, a WBC ([…], time 14 day) of 104.8 x10_2/uL and an APTT ([…], time 28 day) of 18.9 s. The Bas ([…], time 28 day) was 0%, the Eos ([…], time 28 day) was 1% and the Fbg ([…], time 28 day) was 260.8 mg/dL. The Hb ([…], time 28 day) was 15 g/dL, the Ht ([…], time 28 day) was 45.6% and the Lym ([…], time 28 day) was 80.4%. For the same molecule, the MCH ([…], time 28 day) was 18.8 pg, the MCHC ([…], time 28 day) was 32.8% and the MCV ([…], time 28 day) was 57.4 fL. It also gave a Mono ([…], time 28 day) of 6.4%, a Neu ([…], time 28 day) of 11.8% and a PT ([…], time 28 day) of 12.2 s. It also gave a Plat ([…], time 28 day) of 112.2 x10_4/uL, an RBC ([…], time 28 day) of 795.2 x10_4/ul and a Ret ([…], time 28 day) of 3.1%. For the same molecule, the WBC ([…], time 28 day) was 95 x10_2/uL, the KIDNEY_L ([…], time 7 day) was 1.3 g and the KIDNEY_R ([…], time 7 day) was 1.3 g. For the same molecule, the KIDNEY_TOTAL ([…], time 7 day) was 2.6 g, the KIDNEY_L ([…], time 14 day) was 1.5 g and the KIDNEY_R ([…], time 14 day) was 1.5 g. It also gave a KIDNEY_TOTAL ([…], time 14 day) of 3 g, a KIDNEY_L ([…], time 28 day) of 1.8 g and a KIDNEY_R ([…], time 28 day) of 1.8 g. The KIDNEY_TOTAL ([…], time 28 day) was 3.6 g, the LIVER ([…], time 7 day) was 11.3 g and the LIVER ([…], time 14 day) was 13.6 g. It also gave an LIVER ([…], time 28 day) of 14.7 g, an A/G ([…], time 7 day) of 2 and an ALP ([…], time 7 day) of 1056 IU/L. For the same molecule, the ALT ([…], time 7 day) was 30.2 IU/L, the AST ([…], time 7 day) was 67.6 IU/L and the BUN ([…], time 7 day) was 21.2 mg/dL. For the same molecule, the CRE ([…], time 7 day) was 0.4 mg/dL, the Ca ([…], time 7 day) was 13.2 mg/dL and the Cl ([…], time 7 day) was 98.8 meq/L. It also gave a DBIL ([…], time 7 day) of 0.014 mg/dL, a GLC ([…], time 7 day) of 200.8 mg/dL and an IP ([…], time 7 day) of 7.4 mg/dL. The K ([…], time 7 day) was 4.8 meq/L, the LDH ([…], time 7 day) was 169.6 IU/L and the Na ([…], time 7 day) was 129.8 meq/L. It also gave a PL ([…], time 7 day) of 130 mg/dL, an RALB ([…], time 7 day) of 3.6 g/dL and a TBIL ([…], time 7 day) of 0.042 mg/dL. For the same molecule, the TC ([…], time 7 day) was 71.4 mg/dL, the TG ([…], time 7 day) was 90.2 mg/dL and the TP ([…], time 7 day) was 5.5 g/dL. It also gave a gamma-GTP ([…], time 7 day) of 1 IU/L, an A/G ([…], time 14 day) of 1.9 and an ALP ([…], time 14 day) of 1196.4 IU/L. The ALT ([…], time 14 day) was 31.8 IU/L, the AST ([…], time 14 day) was 69.2 IU/L and the BUN ([…], time 14 day) was 20.8 mg/dL. For the same molecule, the CRE ([…], time 14 day) was 0.4 mg/dL, the Ca ([…], time 14 day) was 10.7 mg/dL and the Cl ([…], time 14 day) was 105.6 meq/L. The DBIL ([…], time 14 day) was 0.014 mg/dL, the GLC ([…], time 14 day) was 207 mg/dL and the IP ([…], time 14 day) was 7.5 mg/dL. The K ([…], time 14 day) was 5 meq/L, the LDH ([…], time 14 day) was 125.6 IU/L and the Na ([…], time 14 day) was 138.6 meq/L. It also gave a PL ([…], time 14 day) of 150.8 mg/dL, an RALB ([…], time 14 day) of 3.7 g/dL and a TBIL ([…], time 14 day) of 0.038 mg/dL. It also gave a TC ([…], time 14 day) of 75.6 mg/dL, a TG ([…], time 14 day) of 119.8 mg/dL and a TP ([…], time 14 day) of 5.7 g/dL. It also gave a gamma-GTP ([…], time 14 day) of 1 IU/L, an A/G ([…], time 28 day) of 1.6 and an ALP ([…], time 28 day) of 872.6 IU/L. The ALT ([…], time 28 day) was 28 IU/L, the AST ([…], time 28 day) was 62.8 IU/L and the BUN ([…], time 28 day) was 22 mg/dL. For the same molecule, the CRE ([…], time 28 day) was 0.4 mg/dL, the Ca ([…], time 28 day) was 9.2 mg/dL and the Cl ([…], time 28 day) was 105.6 meq/L. It also gave a DBIL ([…], time 28 day) of 0.01 mg/dL, a GLC ([…], time 28 day) of 182.8 mg/dL and an IP ([…], time 28 day) of 6.5 mg/dL. It also gave a K ([…], time 28 day) of 4.8 meq/L, an LDH ([…], time 28 day) of 160 IU/L and a Na ([…], time 28 day) of 138.4 meq/L. For the same molecule, the PL ([…], time 28 day) was 153.2 mg/dL, the RALB ([…], time 28 day) was 3.8 g/dL and the TBIL ([…], time 28 day) was 0.046 mg/dL. For the same molecule, the TC ([…], time 28 day) was 88.4 mg/dL, the TG ([…], time 28 day) was 117.6 mg/dL and the TP ([…], time 28 day) was 6.1 g/dL. For the same molecule, the gamma-GTP ([…], time 28 day) was 0.6 IU/L.
